Source: paper PMC9486808 (ACS Chemical Biology, 2022)
“Also recorded” adds a separate entry of the source. Positions of bridges follow the written chain, without caps; N, C: chain ends. Non-standard residues stand in square brackets, D forms with d. Residues, ends and D or L forms follow the SMILES beside them.

Key:
Type in all cases: cell-based, Influenza A virus A/California/04/2009 (H1N1)
[1] = molecular target: full length, membrane-bound H1 HA (Influenza A virus, UniProt C3W5S1)
full-length H1 HA I375F = full-length H1 HA I375F (Influenza A virus, UniProt C3W5S1, I389F)
full-length H1 HA I463V = full-length H1 HA I463V (Influenza A virus, UniProt C3W5S1, I477V)

CC(C)C[C@@H]1NC(=O)[C@H](C(C)C)NC(=O)[C@@H](Cc2ccc(O)cc2)NC(=O)CSC[C@@H](C(=O)NCC(N)=O)NC(=O)[C@H](C(C)C)NC(=O)[C@H](Cc2c[nH]c3ccccc23)NC(=O)[C@H](Cc2c[nH]cn2)NC(=O)[C@H]([C@@H](C)O)NC(=O)[C@H](C)NC(=O)[C@H](CC(C)C)NC(=O)[C@H]([C@@H](C)O)NC(=O)CNC(=O)[C@H](Cc2c[nH]cn2)NC(=O)[C@H](CC(=O)O)NC(=O)[C@H](Cc2c[nH]c3ccccc23)NC(=O)[C@H](CCCNC(=N)N)NC(=O)[C@H](Cc2ccccc2)NC1=O [S5] ({CH2CO}-[dY]VLFRWDHGTLATHWVCG-NH2; thioether N-17)
Competition with mAb Fi6 staining [1]: strongly decreased the staining; also recorded: competed with the binding of mAb Fi6 | Binding of biotinylated S5 to cell-surface H1 (full-length H1 HA I375F): hinders binding; also recorded: affected by the I375F substitution | Binding of biotinylated S5 to cell-surface H1 (full-length H1 HA I463V): not by the I463V substitution
